# From patent US20090087845A1, “Genetic Markers Of True Low Birth Weight” (priority 2005, published 2009)
# Test system: placental gene expression
smiles,measurement,setting,value
CCO [alcohol],"Mean 5%, probe set 1385639_at","5% alcohol group, Mean Contr 4.981165",4.504
same,"Mean 5%, Inpp1 (1394340_at)","5% alcohol group, Mean Contr 5.05511",4.704
same,"Mean 5%, RT1-Aw2 (1379496_at)","5% alcohol group, Mean Contr 5.19844",4.65
same,"Mean 5%, Trp53rk_predicted (1379488_at)","5% alcohol group, Mean Contr 5.228085",4.923
same,"Mean 5%, Enpp5 (1388926_at)","5% alcohol group, Mean Contr 5.277582",4.894
same,"Mean 5%, Prdm2_mapped (1381229_at)","5% alcohol group, Mean Contr 5.346211",4.872
same,"Mean 5%, RGD1564011_predicted (1375191_at)","5% alcohol group, Mean Contr 5.471081",5.008
same,"Mean 5%, Centa2 (1369725_at)","5% alcohol group, Mean Contr 5.497342",5.089
same,"Mean 5%, Transcribed locus (1383789_at)","5% alcohol group, Mean Contr 5.574571",5.342
same,"Mean 5%, Transcribed locus (1392286_at)","5% alcohol group, Mean Contr 5.585624",5.242
same,"Mean 5%, Mcpt6 (1387334_at)","5% alcohol group, Mean Contr 5.601581",5.206
same,"Mean 5%, Ggps1 (1377866_a_at)","5% alcohol group, Mean Contr 5.646626",5.273
same,"Mean 5%, Transcribed locus (1389718_at)","5% alcohol group, Mean Contr 5.751838",5.09
same,"Mean 5%, Transcribed locus (1377021_at)","5% alcohol group, Mean Contr 5.80011",5.149
same,"Mean 5%, Cp (1368418_a_at)","5% alcohol group, Mean Contr 5.816824",5.332
same,"Mean 5%, LOC303515 (1383571_at)","5% alcohol group, Mean Contr 5.867879",5.339
same,"Mean 5%, Transcribed locus (1389111_at)","5% alcohol group, Mean Contr 5.875325",5.42
same,"Mean 5%, Transcribed locus (1393980_at)","5% alcohol group, Mean Contr 5.991591",5.335
same,"Mean 5%, Pcmtd2_predicted (1374454_at)","5% alcohol group, Mean Contr 6.083112",5.464
same,"Mean 5%, Plek (1390687_at)","5% alcohol group, Mean Contr 6.105485",5.536
same,"Mean 5%, Cdca7 (1374540_at)","5% alcohol group, Mean Contr 6.195992",5.287
same,"Mean 5%, Cul2_predicted (1378127_at)","5% alcohol group, Mean Contr 6.258107",5.629
same,"Mean 5%, Pex6 (1368264_at)","5% alcohol group, Mean Contr 6.259265",5.664
same,"Mean 5%, St3gal3 (1373607_at)","5% alcohol group, Mean Contr 6.298338",5.956
same,"Mean 5%, Kbtbd4_predicted (1374614_at)","5% alcohol group, Mean Contr 6.314496",5.868
same,"Mean 5%, Phyh (1393245_at)","5% alcohol group, Mean Contr 6.483711",5.646
same,"Mean 5%, LOC287533 (1373627_at)","5% alcohol group, Mean Contr 6.526312",5.83
same,"Mean 5%, Transcribed locus (1388465_at)","5% alcohol group, Mean Contr 6.549543",6.133
same,"Mean 5%, Mss4 (1376745_at)","5% alcohol group, Mean Contr 6.629539",6.082
same,"Mean 5%, Plag1 (1391714_at)","5% alcohol group, Mean Contr 6.670053",5.859
same,"Mean 5%, Sumf1_predicted (1389833_at)","5% alcohol group, Mean Contr 6.839621",6.464
same,"Mean 5%, Polr3e_predicted (1374415_at)","5% alcohol group, Mean Contr 6.849002",6.356
same,"Mean 5%, RGD1308959 (1399108_at)","5% alcohol group, Mean Contr 6.859582",6.437
same,"Mean 5%, Wig1 (1387021_at)","5% alcohol group, Mean Contr 6.895168",6.437
same,"Mean 5%, probe set 1379314_at","5% alcohol group, Mean Contr 6.970231",6.195
same,"Mean 5%, Ddx59 (1383635_at)","5% alcohol group, Mean Contr 6.981191",6.627
same,"Mean 5%, Rnd3 (1394077_at)","5% alcohol group, Mean Contr 7.018906",6.516
same,"Mean 5%, probe set 1393037_at","5% alcohol group, Mean Contr 7.020197",6.711
same,"Mean 5%, Slc39a4_predicted (1374366_at)","5% alcohol group, Mean Contr 7.252498",6.553
same,"Mean 5%, RGD1305243_predicted (1374076_at)","5% alcohol group, Mean Contr 7.300542",6.98
same,"Mean 5%, Transcribed locus (1393310_at)","5% alcohol group, Mean Contr 7.364799",6.579
same,"Mean 5%, Gusb (1367901_at)","5% alcohol group, Mean Contr 7.420203",6.975
same,"Mean 5%, probe set 1392953_at","5% alcohol group, Mean Contr 7.435411",6.789
same,"Mean 5%, Crsp9_predicted (1377263_at)","5% alcohol group, Mean Contr 7.471023",6.737
same,"Mean 5%, probe set 1389582_at","5% alcohol group, Mean Contr 7.588214",6.742
same,"Mean 5%, Transcribed locus (1393226_at)","5% alcohol group, Mean Contr 7.705027",6.779
same,"Mean 5%, RGD1565289_predicted (1375297_at)","5% alcohol group, Mean Contr 7.731478",6.938
same,"Mean 5%, Zfp207 (1394591_at)","5% alcohol group, Mean Contr 8.125942",7.43
same,"Mean 5%, Akr7a2 (1367843_at)","5% alcohol group, Mean Contr 8.276972",7.547
same,"Mean 5%, Tparl (1373392_at)","5% alcohol group, Mean Contr 8.308305",8.164
same,"Mean 5%, Mcts1 (1388660_at)","5% alcohol group, Mean Contr 8.623529",8.191
same,"Mean 5%, Hadhsc (1370237_at)","5% alcohol group, Mean Contr 8.793343",8.481
same,"Mean 5%, Asah1 (1374770_at)","5% alcohol group, Mean Contr 9.074708",8.62
same,"Mean 5%, Arts1 (1368356_a_at)","5% alcohol group, Mean Contr 9.55972",9.182
same,"Mean 5%, Ndufb5_predicted (1388304_at)","5% alcohol group, Mean Contr 10.12286",9.747
same,"Mean 5%, MGC72992 (1389325_at)","5% alcohol group, Mean Contr 10.24563",9.919
same,"Mean 5%, Vps35_mapped (1372806_at)","5% alcohol group, Mean Contr 10.46183",10.13
same,"Mean 10%, probe set 1385639_at","10% alcohol group, Mean Contr 4.981165",4.259
same,"Mean 10%, Inpp1 (1394340_at)","10% alcohol group, Mean Contr 5.05511",4.269
same,"Mean 10%, RT1-Aw2 (1379496_at)","10% alcohol group, Mean Contr 5.19844",4.376
same,"Mean 10%, Trp53rk_predicted (1379488_at)","10% alcohol group, Mean Contr 5.228085",4.494
same,"Mean 10%, Enpp5 (1388926_at)","10% alcohol group, Mean Contr 5.277582",4.551
same,"Mean 10%, Prdm2_mapped (1381229_at)","10% alcohol group, Mean Contr 5.346211",4.661
same,"Mean 10%, RGD1564011_predicted (1375191_at)","10% alcohol group, Mean Contr 5.471081",4.639
same,"Mean 10%, Centa2 (1369725_at)","10% alcohol group, Mean Contr 5.497342",4.692
same,"Mean 10%, Transcribed locus (1383789_at)","10% alcohol group, Mean Contr 5.574571",4.986
same,"Mean 10%, Transcribed locus (1392286_at)","10% alcohol group, Mean Contr 5.585624",4.791
same,"Mean 10%, Mcpt6 (1387334_at)","10% alcohol group, Mean Contr 5.601581",4.849
same,"Mean 10%, Ggps1 (1377866_a_at)","10% alcohol group, Mean Contr 5.646626",4.808
same,"Mean 10%, Transcribed locus (1389718_at)","10% alcohol group, Mean Contr 5.751838",4.745
same,"Mean 10%, Transcribed locus (1377021_at)","10% alcohol group, Mean Contr 5.80011",4.752
same,"Mean 10%, Cp (1368418_a_at)","10% alcohol group, Mean Contr 5.816824",5.05
same,"Mean 10%, LOC303515 (1383571_at)","10% alcohol group, Mean Contr 5.867879",5.002
same,"Mean 10%, Transcribed locus (1389111_at)","10% alcohol group, Mean Contr 5.875325",4.794
same,"Mean 10%, Transcribed locus (1393980_at)","10% alcohol group, Mean Contr 5.991591",4.943
same,"Mean 10%, Pcmtd2_predicted (1374454_at)","10% alcohol group, Mean Contr 6.083112",4.612
same,"Mean 10%, Plek (1390687_at)","10% alcohol group, Mean Contr 6.105485",4.933
same,"Mean 10%, Cdca7 (1374540_at)","10% alcohol group, Mean Contr 6.195992",4.948
same,"Mean 10%, Cul2_predicted (1378127_at)","10% alcohol group, Mean Contr 6.258107",5.032
